The target of one series is T1, hOAT1 (Homo sapiens, UniProt Q4U2R8).
T1 construct: expressed in transfected cells; host or cells: HEK293
T1 sequence (Q4U2R8 1-563): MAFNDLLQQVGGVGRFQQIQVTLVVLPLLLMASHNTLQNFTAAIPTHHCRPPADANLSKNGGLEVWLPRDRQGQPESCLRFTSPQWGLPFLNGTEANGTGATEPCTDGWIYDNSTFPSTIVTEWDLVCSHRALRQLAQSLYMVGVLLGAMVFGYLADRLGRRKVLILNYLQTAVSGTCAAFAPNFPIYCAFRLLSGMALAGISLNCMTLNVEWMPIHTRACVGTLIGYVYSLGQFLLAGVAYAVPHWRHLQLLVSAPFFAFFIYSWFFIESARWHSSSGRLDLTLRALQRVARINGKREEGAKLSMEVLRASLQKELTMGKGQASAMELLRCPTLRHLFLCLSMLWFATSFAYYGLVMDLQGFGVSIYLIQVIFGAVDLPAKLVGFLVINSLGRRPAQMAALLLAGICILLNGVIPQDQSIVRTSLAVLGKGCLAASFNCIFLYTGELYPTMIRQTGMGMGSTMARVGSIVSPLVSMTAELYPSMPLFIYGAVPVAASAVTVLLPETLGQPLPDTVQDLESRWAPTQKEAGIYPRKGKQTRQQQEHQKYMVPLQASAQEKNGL
The series can be described thus: Uptake of AAI by hOAT1-transfected HEK293 cells with or without JBP485. It is filed as cell-based. As to the method:
Uptake experiments with hOAT1/3-HEK293 cells were performed as previously described ([Zhu et al., 2020]). Uptake was initiated by adding transport buffer (1 mL) with AAI (1 μM) and/or JBP485 (500 μM) after the cells were washed twice and incubated with transport buffer at 37°C. Moreover, the concentration-dependent uptake of AAI and the effects of JBP485 on AAI uptake were examined. Uptake was terminated upon the removal of the medium. The cells were washed three times with 1 mL of ice-cold Hanks’ balanced salt solution, lysed with 0.3 mL of 0.1% (v/v) Triton X-100, and then transferred to a polythene tube for quantification by LC-MS/MS. The protein level was measured using the BCA method (Solarbio, Beijing, China) with bovine serum albumin serving as the standard.
The concentrations of the test compounds in plasma, urine, and cell lysates were determined using an Agilent HP1200 liquid chromatography system (Agilent Technology Inc., SC, CA, United States) and an API 3200 triple-quadrupole mass spectrometer (Applied Biosystems, SC, CA, United States). After protein precipitation using acetonitrile, the analyte was separated on a Hypersil BDS C18 column. The mobile phase consisted of acetonitrile and water containing 0.1% (v/v) formic acid (80:20, v/v). The flow rate was 0.4 mL/min. The mass spectrometer was equipped with an electrospray ionization (ESI) source. Data were acquired in positive ion mode and dynamic multiple reaction monitoring (MRM) mode. The ESI source conditions were as follows: ion spray voltage, 5.5 kV; ion source temperature, 600°C; Gas source 1 (GS1, N2) pressure, 50 psi; Gas source 2 (GS2, N2) pressure, 60 psi; curtain gas (CUR) pressure, 12 psi; and collision gas (CAD) pressure, 10 psi. EP and CXP were set at […] for all analytes. The scan range was m/z 359.9→298.1 for AAI and m/z 130.0→71.2 for IS (Internal Standard, metformin). […] Intra- and inter-day precision was lower than 4.5% with reference to relative standard deviation, while accuracy was within ±6.5% in terms of relative error for analytes. Analyst software (version 1.4.1) was used for equipment control and data acquisition and analysis.

Another series has as its system rat kidney slices. The series can be described thus: In vitro uptake of AAI in kidney slices. The settings on record: AAI 1 μM, JBP485 500 μM. It is filed as in vitro ADME. As to the method: Rat kidneys were cut into slices with a ZQP-86 tissue slicer (Zhixin Co. Ltd., China), as previously described ([Wang et al., 2014]). After preincubation for 3 min at 37°C, the kidney slices were transferred to 24-well culture plates containing 1 mL of fresh oxygenated buffer with AAI (1 μM) and/or JBP485 (500 μM) and further incubated at 37 °C with gentle shaking. After incubation for 5, 15, and 30 min, the slices were washed with ice-cold Hanks’ balanced salt solution (pH 7.5). The amount of AAI accumulated in the homogenized kidneys was determined by LC–MS/MS.
The concentrations of the test compounds in plasma, urine, and cell lysates were determined using an Agilent HP1200 liquid chromatography system (Agilent Technology Inc., SC, CA, United States) and an API 3200 triple-quadrupole mass spectrometer (Applied Biosystems, SC, CA, United States). After protein precipitation using acetonitrile, the analyte was separated on a Hypersil BDS C18 column. The mobile phase consisted of acetonitrile and water containing 0.1% (v/v) formic acid (80:20, v/v). The flow rate was 0.4 mL/min. The mass spectrometer was equipped with an electrospray ionization (ESI) source. Data were acquired in positive ion mode and dynamic multiple reaction monitoring (MRM) mode. […]

As usually defined, the IC50 is the midpoint of a concentration-inhibition curve. As for `O=C1N[C@@H](CO)C(=O)N2C[C@H](O)C[C@@H]12` (relative stereo) [JBP485, cyclo-trans-4-L-hydroxyprolyl-L-serine], the “type of inhibition of AAI uptake” value at hOAT1 (hOAT1-HEK293 cells, Km increased, Vmax unchanged) is “competitive inhibition”. The concentration for half-maximal inhibition (IC50) on hOAT1 (hOAT1-transfected HEK293 cells, substrate AAI, read-out: IC50 of inhibition of AAI uptake, OAT1) is 89.8 ± 12.3 µM. Also, the “AAI uptake in kidney slices” value with rat kidney slices was “inhibited”.

As a reminder, the Km is the concentration of substrate that gives half-maximal velocity. Take `COc1cccc2c1cc([N+](=O)[O-])c1c(C(=O)O)cc3c(c12)OCO3` [AAI, Aristolochic Acid I]: the Km on hOAT1 (hOAT1-HEK293 cells, with or without JBP485, Eadie-Hofstee, n = 3) stood at 15.7 ± 0.4 µM. The “Vmax of AAI uptake” value at hOAT1 (hOAT1-HEK293 cells, with or without JBP485, n = 3) was found to be 0.141 ± 0.04 nmol/mg protein/1min.

These data come from paper PMC12074917, “Molecular pharmacokinetic mechanism of JBP485 against aristolochic acid I (AAI) -induced nephrotoxicity” (Frontiers in Pharmacology, 2025).
